PMC8541628, “Development of Novel Quinoline-Based Sulfonamides as Selective Cancer-Associated Carbonic Anhydrase Isoform IX Inhibitors” (International Journal of Molecular Sciences, 2021)

Experiments:
hCA IX = hCA IX (Homo sapiens, UniProt Q16790); test: stopped flow carbon dioxide hydrase assay, hCA IX; settings: for Selectivity ratio I/IX: hCA IX over hCA I; for Selectivity ratio II/IX: hCA IX over hCA II
hCA II = hCA II (Homo sapiens, UniProt P00918); test: stopped flow carbon dioxide hydrase assay, hCA II
hCA I = hCA I (Homo sapiens, UniProt P00915); test: stopped flow carbon dioxide hydrase assay, hCA I
hCA XII = hCA XII (Homo sapiens, UniProt O43570); test: stopped flow carbon dioxide hydrase assay, hCA XII; settings: for Selectivity ratio I/XII: hCA XII over hCA I; for Selectivity ratio II/XII: hCA XII over hCA II
MCF-7 = test: 72 h MTT anti-proliferative assay under hypoxic conditions, MCF-7; assay type: cell-based; settings: Homo sapiens, MCF7, mean ± S.D. of three experiments
Procedure: Therefore, QBS 11c and 13b were further screened for their potential in vitro anti-proliferative action against two breast cancer cell lines (MDA-MB-231 and MCF-7) under hypoxic conditions, exploiting a 72 h MTT assay protocol and using Doxorubicin as a positive control drug.
All adopted procedures for the conducted in vitro biological assays were performed as described earlier; CA (stopped-flow), cytotoxicity (MTT [37, 38]), and assessment of apoptotic markers assays, as well as induction of hypoxia with cobalt chloride, and were mentioned in the Supporting Materials.
(§1) 1. Carbonic anhydrase inhibition assay
16) herein reported have were assayed utilizing an instrument of Applied Photophysics stopped-flow. The enzymes are recombinant proteins prepared in our lab. Phenol red (at a concentration of 0.2 mM) has been used as indicator, working at the absorbance maximum of 557 nm, with 20 mM Hepes (pH 7.5) as buffer, and 20 mM Na2SO4 (for maintaining constant the ionic strength), […]
parameters and inhibition constants. For each inhibitor at least six traces of the initial 5-10% of the reaction have been used for determining the initial velocity . Th e un cat aly zed rates were determined in the same manner and subtracted from the total observed rates. Stock solutions of inhibitor (0.1 mM) were prepared in distilled-deionized water and dilutions up to 0.01 nM were done thereafter with the assay buffer. Inhibitor and enzyme solutions were preincubated together for 15 min at room temperature prior to assay, in order to allow fo r the formation of the E-I complex. […]
Cells were sub-cultured with try psine /EDTA solution, counted with haemocy tometer and plated onto 96-well plates (5000 cells/well) and left overnight to form a semi-confluent […]
monolay er. […] DMSO (100 µl/well) was added to dissolve the formazan crystals with shaking for 10 min after which the absorbance was read at 590 nm against no cell blanks on a FLuo Star Optima microplate reader (BMG technologies, Germany). Cell proliferation was calculated comparing the OD values of the DMSO control wells and those of the samples

MDA-MB-231 = test: 72 h MTT anti-proliferative assay under hypoxic conditions, MDA-MB-231; assay type: cell-based; settings: Homo sapiens, mean ± S.D. of three experiments
Source text: as §1
The enzymes are recombinant proteins prepared in our lab.
parameters and inhibition constants.
2. Anti-proliferative action toward human breast cell lines

Chain of hCA I (P00915 whole entry): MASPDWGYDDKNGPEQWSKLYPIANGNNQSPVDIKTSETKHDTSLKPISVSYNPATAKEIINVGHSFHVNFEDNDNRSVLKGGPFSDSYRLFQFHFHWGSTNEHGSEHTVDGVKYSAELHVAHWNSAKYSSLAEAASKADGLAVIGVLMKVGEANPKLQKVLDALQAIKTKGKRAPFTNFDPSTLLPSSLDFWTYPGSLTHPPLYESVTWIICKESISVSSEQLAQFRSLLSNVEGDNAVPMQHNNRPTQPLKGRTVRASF
Chain of hCA XII (O43570 25-354): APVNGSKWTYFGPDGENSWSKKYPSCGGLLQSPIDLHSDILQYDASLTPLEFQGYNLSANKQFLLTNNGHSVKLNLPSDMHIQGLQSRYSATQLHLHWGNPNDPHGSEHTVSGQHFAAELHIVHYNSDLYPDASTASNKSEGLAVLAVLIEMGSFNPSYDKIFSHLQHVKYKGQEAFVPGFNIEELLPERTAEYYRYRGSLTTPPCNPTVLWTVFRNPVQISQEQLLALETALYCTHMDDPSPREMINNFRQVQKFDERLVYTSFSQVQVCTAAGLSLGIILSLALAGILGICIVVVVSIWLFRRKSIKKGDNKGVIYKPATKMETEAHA

Row | Compound | Ki (hCA IX) | Selectivity ratio I/IX (hCA IX) | Selectivity ratio II/IX (hCA IX) | Ki (hCA II) | Ki (hCA I) | melting point | Ki (hCA XII) | Selectivity ratio I/XII (hCA XII) | Selectivity ratio II/XII (hCA XII) | IC50 (MCF-7) | IC50 (MDA-MB-231)
1 | Cc1ccc2nccc(Nc3ccccc3S(N)(=O)=O)c2c1 [9a, 2-((6-methylquinolin-4-yl)amino)benzenesulfonamide] | 0.0364 µM | 15.3 | 2.2 | 0.0784 µM | 0.558 µM | 264 to 265 °C | 0.0228 µM | 24.5 | 3.4 | – | –
2 | COc1ccc2nccc(Nc3ccccc3S(N)(=O)=O)c2c1 [9b, 2-((6-methoxyquinolin-4-yl)amino)benzenesulfonamide] | 0.0392 µM | 22.1 | 1.3 | 0.0497 µM | 0.864 µM | 275 to 277 °C | 0.0421 µM | 20.5 | 1.2 | – | –
3 | NS(=O)(=O)c1ccccc1Nc1ccnc2ccc(Cl)cc12 [9c, 2-((6-chloroquinolin-4-yl)amino)benzenesulfonamide] | 0.0656 µM | 18.9 | 1.3 | 0.0868 µM | 1.24 µM | 258 to 260 °C | 0.0384 µM | 32.3 | 2.3 | – | –
4 | NS(=O)(=O)c1ccccc1Nc1ccnc2cc(C(F)(F)F)cc(C(F)(F)F)c12 [9d, 2-((5,7-bis(trifluoromethyl)quinolin-4-yl)amino)benzenesulfonamide] | – | – | – | 0.112 µM | 1.56 µM | – | – | – | – | – | –
5 | COc1cccc2c1C(=O)c1c(O)c3c(c(O)c1C2=O)C[C@@](O)(C(=O)CO)C[C@@H]3O[C@H]1C[C@H](N)[C@H](O)[C@H](C)O1 [Doxorubicin, reference compound] | – | – | – | – | – | – | – | – | – | 3.04 ± 0.14 µM | 1.67 ± 0.08 µM
6 | COc1ccc2nccc(NNC(=O)c3ccc(S(N)(=O)=O)cc3)c2c1 [compound 16, 4-(2-(6-Methoxyquinolin-4-yl)hydrazine-1-carbonyl)benzenesulfonamide] | 0.0217 µM | 3.8 | 1.4 | 0.0311 µM | 0.0814 µM | 228 to 230 °C | 0.0254 µM | 3.2 | 1.2 | – | –

Second part, led by results:

Row | Ki (hCA IX) | Selectivity ratio I/IX (hCA IX) | Selectivity ratio II/IX (hCA IX) | Ki (hCA II) | Ki (hCA I) | melting point | Ki (hCA XII) | Selectivity ratio I/XII (hCA XII) | Selectivity ratio II/XII (hCA XII) | Compound | IC50 (MCF-7) | IC50 (MDA-MB-231)
7 | 0.0701 µM | 9.5 | 3.8 | 0.265 µM | 0.663 µM | 272 to 274 °C | 0.0412 µM | 16.1 | 6.4 | Cc1ccc2nccc(Nc3cccc(S(N)(=O)=O)c3)c2c1 [11a, 3-((6-methylquinolin-4-yl)amino)benzenesulfonamide] | – | –
8 | 0.0865 µM | 3.0 | 4.2 | 0.366 µM | 0.258 µM | 244 to 246 °C | 0.0731 µM | 3.5 | 5.0 | COc1ccc2nccc(Nc3cccc(S(N)(=O)=O)c3)c2c1 [11b, 3-((6-methoxyquinolin-4-yl)amino)benzenesulfonamide] | – | –
9 | 0.0529 µM | 2.0 | 4.2 | 0.221 µM | 0.105 µM | 172 to 174 °C | 0.034 µM | 3.1 | 6.5 | NS(=O)(=O)c1cccc(Nc2ccnc3cc(C(F)(F)F)cc(C(F)(F)F)c23)c1 [11d, 3-((5,7-bis(trifluoromethyl)quinolin-4-yl)amino)benzenesulfonamide] | – | –
10 | 0.104 µM | 33.8 | 14.5 | 1.5 µM | 3.5 µM | 280 to 282 °C | 0.0881 µM | 39.7 | 17.1 | Cc1ccc2nccc(Nc3ccc(C)c(S(N)(=O)=O)c3)c2c1 [11e, 2-methyl-5-((6-methylquinolin-4-yl)amino)benzenesulfonamide] | – | –
11 | 0.853 µM | 2.6 | 1.2 | 0.998 µM | 2.26 µM | 248 to 250 °C | 0.152 µM | 14.8 | 6.6 | COc1ccc2nccc(Nc3ccc(C)c(S(N)(=O)=O)c3)c2c1 [11f, 5-((6-methoxyquinolin-4-yl)amino)-2-methylbenzenesulfonamide] | – | –
12 | 0.116 µM | 38.9 | 20.3 | 2.36 µM | 4.52 µM | 282 to 285 °C | 0.0927 µM | 48.8 | 25.4 | Cc1ccc(Nc2ccnc3ccc(Cl)cc23)cc1S(N)(=O)=O [11g, 5-((6-chloroquinolin-4-yl)amino)-2-methylbenzenesulfonamide] | – | –
13 | 0.0258 µM | 3.0 | 1.4 | 0.0365 µM | 0.0784 µM | 270 to 272 °C | 0.0098 µM | 8.0 | 3.7 | Cc1ccc2nccc(Nc3ccc(S(N)(=O)=O)cc3)c2c1 [13a, 4-((6-methylquinolin-4-yl)amino)benzenesulfonamide] | – | –
14 | 0.0186 µM | 3.0 | 0.4 | 0.0073 µM | 0.0554 µM | 284 to 286 °C | 0.0087 µM | 6.4 | 0.8 | NS(=O)(=O)c1ccc(Nc2ccnc3ccc(Cl)cc23)cc1 [13c, 4-((6-chloroquinolin-4-yl)amino)benzenesulfonamide] | – | –
